Data set [1] has as its target T1, human CaSR (Homo sapiens, UniProt P41180).
T1 construct: The ORF coding for the human CaSR (genebank: NM_000388) was acquired from Invitrogen Corp, USA
T1 sequence (P41180 20-1078): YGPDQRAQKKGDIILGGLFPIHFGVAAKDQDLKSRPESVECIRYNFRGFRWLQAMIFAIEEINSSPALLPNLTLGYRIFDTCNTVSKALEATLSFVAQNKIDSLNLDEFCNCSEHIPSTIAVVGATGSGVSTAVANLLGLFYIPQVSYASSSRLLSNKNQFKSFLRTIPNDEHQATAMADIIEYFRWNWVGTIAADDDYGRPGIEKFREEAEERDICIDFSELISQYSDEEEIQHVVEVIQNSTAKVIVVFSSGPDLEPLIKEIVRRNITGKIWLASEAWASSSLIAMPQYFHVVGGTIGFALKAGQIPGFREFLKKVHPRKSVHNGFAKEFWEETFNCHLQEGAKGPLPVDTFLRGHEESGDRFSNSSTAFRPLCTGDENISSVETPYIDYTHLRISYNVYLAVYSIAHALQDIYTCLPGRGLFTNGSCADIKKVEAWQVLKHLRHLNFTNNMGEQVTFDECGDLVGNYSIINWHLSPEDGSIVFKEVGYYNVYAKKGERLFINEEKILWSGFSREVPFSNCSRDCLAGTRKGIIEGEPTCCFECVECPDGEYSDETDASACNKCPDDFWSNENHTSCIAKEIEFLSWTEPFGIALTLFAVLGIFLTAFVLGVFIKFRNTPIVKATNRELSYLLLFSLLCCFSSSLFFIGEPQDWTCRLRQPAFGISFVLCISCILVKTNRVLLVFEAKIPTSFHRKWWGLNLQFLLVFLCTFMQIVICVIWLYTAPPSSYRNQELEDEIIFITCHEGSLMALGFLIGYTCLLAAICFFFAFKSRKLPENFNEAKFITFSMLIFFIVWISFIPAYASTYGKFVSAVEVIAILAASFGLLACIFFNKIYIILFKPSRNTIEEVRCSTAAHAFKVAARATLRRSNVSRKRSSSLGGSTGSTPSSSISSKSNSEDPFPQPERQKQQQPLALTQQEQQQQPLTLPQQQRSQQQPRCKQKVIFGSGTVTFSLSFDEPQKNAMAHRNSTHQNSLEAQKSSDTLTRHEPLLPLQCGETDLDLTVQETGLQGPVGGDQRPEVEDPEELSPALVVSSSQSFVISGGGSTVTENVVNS
Put plainly: Functional whole cell assay (IP1 accumulation, IP-One htrf) in CHO-K1 cells stably expressing human CaSR. It counts as cell-based. As to conditions: 2 mM Ca2+, 1 hour at 37° C., IP1 readout, read-out: Functional whole cell assay (modulation of human CaSR). The source says:
The assay investigates a compound's functional ability to act as a biological positive modulator on the human CaSR. Activation of the receptor expressed on CHO-K1 cells is detected through the G alpha q pathway, the activation of phospholipase C and the accumulation of intracellular inositol phosphate (IP) as described earlier [Sandrine Ferry, Bruno Chatel, Robert H. Dodd, Christine Lair, Danielle Gully, Jean-Pierre Maffrand, and Martial Ruat. Effects of Divalent Cations and of a Calcimimetic on Adrenocorticotropic Hormone Release in Pituitary Tumor Cells. BIOCHEMICAL AND BIOPHYSICAL RESEARCH COMMUNICATIONS 238, 866-873 (1997)]. The human CaSR is stably expressed on a CHO-K1 cell clone, stimulated with a basal level of calcium and challenged with the tested compound. The level of IP1 is determined using the IP-One htrf kit (Cisbio, France). CHO-K1 cells not transfected with the CaSR fail to elicit an IP1 response upon calcium and/or compound stimulation.
The ORF coding for the human CaSR (genebank: NM_000388) was acquired from Invitrogen Corp, USA and subsequently cloned into the mammalian expression vector pCDA3.1.
CHO-K1 cells were transfected using Lipofectamine according to manufacturer's protocol (400.000 cells/well were seeded in a 6-well plate and transfected after 24 hours using 2 μg DNA and 5 μl lipofectamine). After another 24 hours the cells were detached, seeded and subjected to 1 mg/ml of G-418. Following 7 days growth single clones were picked, the CaSR expression evaluated using the 5C10 antibody against CaSR, the clones with the highest expression were selected and tested for functional response. The preferred clone was continuously cultured according to standard procedures described in ATCC (American Type Culture Collection) protocols for CHO-K1 with the addition of 500 μg/ml G-418.
On the assay day cells were harvested and resuspended to 13*10^6 cells/ml in stimulation buffer (containing: Hepes 10 mM, MgCl2 0.5 mM, KCl 4.2 mM, NaCl 146 mM, glucose 5.5 mM, LiCl 50 mM at pH 7.4). Five μl cell solution were pipetted into a well (white 384-well plate, Perkin Elmer Optiplate) followed by 5 μl compound diluted in a Ca^2+-containing (to the final concentration of 2 mM) buffer. After compound stimulation for 1 hour at 37° C. 10 μl of IP-One assay reagents were added and incubated for another 1 hour at room temperature. Finally the plate was read using a Perkin Elmer EnVision, according to protocol supplied by the IP-One assay kit manufacturer. The FRET ratio was calculated by dividing the 665 nm emission signal with that of the 615 nm.

Data set [2] in a line: Clearance in rat hepatocytes. It counts as in vitro ADME. Particulars: test compound 0.5 μM, 1×10^6 cells/mL, scaled to rat body weight. How it is done: Test compound concentration is 0.5 μM and cell concentration is 1×10^6 cells/mL in the incubation. The described method is manual and is based on a 24-well format.
The liver is collected from a male Spraque-Dawley rat. One liver lobe is cut off and flushed with various buffers to loosen the cells. The cell suspension is washed and centrifuged, and the cell density is adjusted to 1.2×10^6 cells/mL with Krebs-Henseleit buffer, pH 7.4, containing 0.2% bovine serum albumin (BSA). Only cell suspensions with viability above 80% are used.
A volume of 315 μL cell suspension per well is added to 24-well plates and preincubated at 37° C. for 20 min. Test compound (0.5 μM) is added, and the mixture is incubated for 20 minutes. Incubations are run in duplicate. Samples are withdrawn at predetermined stop times and mixed with methanol containing internal standard (IS) to terminate all enzyme activity and precipitate proteins.
The percentage of organic solvent in the incubations is less than 1%. Careful inspections of reagents are performed prior to the start of any experiment to ensure all reagents are in solution.
The 24-well plates are centrifuged. Test compound depletion, using a compound specific LC/MS/MS method, is determined. The logarithm of the peak area ratios of test compound to internal standard (IS) versus incubation time is plotted in a graph
The rate constant (k) (min^−1) of test compound depletion is calculated from the linear part of the curve and the half-time (t1/2) in minutes can be calculated from the rate constant (Eq. 1). t1/2=(ln 2)/k (Eq. 1)
Intrinsic clearance (Clint) (mL/min/10^6 cells) is calculated from: Clint=k/c (Eq. 2) where c is the cell concentration in 10^6 cells/mL.
Conversion to apparent clearance (Clapp) (mL/min/kg) is done by Eq. 3: Clapp=Clint×a×b/d (Eq. 3) where a, b and d are the scaling factors for normalizing Clint to rat body weight.
The following rat scaling factors are used: • a: 120 (cells/liver weight (10^6 cells/g)) • b: 10 (liver weight (g)) • d: 0.25 (body weight (kg))
Apparent clearance is a measure of compound elimination from the liver. Apparent clearance below approximately 25 mL/min/kg rat body weight (corresponding to extraction ratio of approx. 30%) is considered as low clearance (high metabolic stability). Apparent clearance above approximately 165 mL/min/kg rat body weight (corresponding to extraction ratio of approx. 75%) is considered as high clearance (low metabolic stability).

These results are taken from US8785494B2, “Calcium sensing receptor modulating compounds and pharmaceutical use thereof” (LEO-Pharma A/S, priority 2009, dated 2014).

Molecules are shown by their SMILES.

In the case of `COc1cc([C@@H](C)NC2CC[C@H](c3ccc(OCC(=O)O)c(C(F)(F)F)c3)C2)ccc1F` (mixture of isomers) [Compound 1021, 2-[4-[(1S)-3-[[(1R)-1-(4-fluoro-3-methoxy-phenyl)ethyl]amino]cyclopentyl]-2-(trifluoromethyl)phenoxy]acetic acid], the EC50 in data set [1] is below 500 nM. The “Clearance (Clapp) in rat hepatocytes” value in data set [2] was “A (A: <30 mL/min/kg)”.

On to `COc1cc([C@@H](C)NC2CC[C@@H](c3cc(OCC(=O)O)cc(C(F)(F)F)c3)C2)ccc1F` (single isomer, unassigned) [Compound 1022], for which the EC50 in data set [1] was below 500 nM. The “Clearance (Clapp) in rat hepatocytes” value in data set [2] is listed as “A (A: <30 mL/min/kg)”.

In the case of `C[C@@H](NC1CC[C@@H](c2cc(OCC(=O)O)cc(C(F)(F)F)c2)C1)c1cccc2ccccc12` (single isomer, unassigned) [Compound 1023], the EC50 in data set [1] is below 500 nM. Moreover, in data set [2], the “Clearance (Clapp) in rat hepatocytes” value was “B (B: 30-55 mL/min/kg)”.

On to `COc1cc([C@@H](C)NC2CC[C@H](c3ccc(CCC(=O)O)c(C(F)(F)F)c3)C2)ccc1F` (single isomer, unassigned) [Compound 1012], for which, in data set [1], the EC50 is below 500 nM. The “Clearance (Clapp) in rat hepatocytes” value in data set [2] was “A (A: <30 mL/min/kg)”.

With `C[C@@H](NC1CCC(c2ccc(CCC(=O)O)c(C(F)(F)F)c2)C1)c1cccc2ccccc12` (single isomer, unassigned) [Compound 1007], in data set [1], the EC50 was below 500 nM. For the same compound, the “Clearance (Clapp) in rat hepatocytes” value in data set [2] is “B (B: 30-55 mL/min/kg)”.
